Test results: paper PMC5998037, “Glutamine 89 is a key residue in the allosteric modulation of human serine racemase activity by ATP” (Scientific Reports, 2018)
Changes are numbered by the printed parent chain. Values joined by “and” are separate entries in the source; they are usually repeats but may differ in a detail not shown here. Equal values may be shown once. Read-outs that look alike come from different tables or passages of the source. Blank lines part the entries; values can stand above or below the molecule they belong to.

How the values were obtained:
hSR [1] = biological target: T1, hSR (Homo sapiens, UniProt Q9GZT4); assay: D-Ser dehydration (LDH-coupled assay); format: biochemical; conditions: D-Ser dehydration by hSR
T1 construct: His tag; made in house; host or cells: Escherichia coli (co-expressed with chaperones)
T1 sequence (Q9GZT4 1-340): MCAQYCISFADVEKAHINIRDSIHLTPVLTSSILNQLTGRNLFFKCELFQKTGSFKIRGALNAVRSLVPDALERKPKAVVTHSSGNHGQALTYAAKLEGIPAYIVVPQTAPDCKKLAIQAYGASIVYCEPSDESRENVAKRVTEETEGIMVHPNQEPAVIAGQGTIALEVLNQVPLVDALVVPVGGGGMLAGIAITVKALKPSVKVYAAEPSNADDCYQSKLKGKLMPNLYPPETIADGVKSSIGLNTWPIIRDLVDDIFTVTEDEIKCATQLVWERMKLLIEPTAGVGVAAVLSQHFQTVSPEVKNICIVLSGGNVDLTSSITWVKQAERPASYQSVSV
Protocol: (§1) The initial velocity of L-serine dehydration by hSR was monitored by a coupled assay with lactate dehydrogenase (LDH)[5] as previously reported. Nicotinamide adenine dinucleotide (NADH) consumption was followed at 340 nm using a Varian Cary4000 spectrophotometer. The assay solution in buffer A contained 5 mM DTT, 30 U/ml LDH and 300 μM NADH. The concentration of magnesium used in the assay was always higher than or equal to the concentration of ATP. If not otherwise stated, it was set to 2 mM. The protein concentration used in the assay for L-Ser dehydration was 0.4 and 1.6 μM in the presence and absence of 2 mM ATP, respectively. The concentration used in the assay for D-Ser dehydration was 3.1 and 6.0 μM in the presence and absence of ATP, respectively.
(§2) The half-maximal activation (EC50) caused by ATP binding to hSR was calculated with Eq. (1):1 vi/v0=a⋅[ATP]/EC50+[ATP] where vi is the velocity of the reaction catalysed by the enzyme in presence of a defined ATP concentration, v0 is the velocity of the reaction catalysed by the enzyme in the absence of ATP and a is the difference between the maximum and the basal activity. The dissociation constant (KD) of ligands for hSR calculated by fluorimetric titrations was calculated with Eq. (2):2 y=y0+a⋅[L]/KD+[L] where y is the fluorescence emission intensity, [L] is the ligand concentration, y0 is an offset and a is the amplitude. The fluorescence emission intensity was collected at 480 nm for glycine titration, at 492 nm for ATP titration and at 478 nm for ATP titration in the presence of glycine. The kinetic parameters were calculated using the Michaelis –Menten equation:3 v0=Vmax⋅[S]/Km+[S] where v0 is the initial enzymatic rate, Vmax is the rate at substrate saturation, Km is the Michaelis constant and [S] is the substrate concentration. Catalytic efficiency for the dehydratase activity of Q89A-hSR on D-Ser was calculated at [D-Ser] < Km, where equation (3) becomes v0≅Vmax/Km .

Q89M-hSR [2] = biological target: T2, Q89M-hSR (Homo sapiens, UniProt Q9GZT4, Q89M); assay: Fluorimetric titrations (PLP fluorescence emission); format: binding
T2 construct: hexa-His; made in house; host or cells: E. coli BL21 CodonPlus (DE3)-RIL with GroEL/GroES
T2 sequence (Q9GZT4 1-340 Q89M): T1 sequence (Q9GZT4 1-340) with Q89M
Protocol: Fluorescence emission spectra upon excitation at 412 nm were collected using a FluoroMax-3 fluorometer (HORIBA Jobin Yvon, Kyoto, Japan) at 20.0 ± 0.5 °C. […] Binding of either glycine or ATP was measured by direct titrations of the protein solution in the range 0–1.2 mM and 0–1.0 mM, respectively. […] Spectra were corrected for buffer contribution. Far-UV circular dichroism spectra (195–260 nm) were collected using a JASCO J-715 spectropolarimeter (Easton, MD, USA). […] Each spectrum is the average of three independent measurements.
(§3) The fluorescence emission intensity was collected at 480 nm for glycine titration, at 492 nm for ATP titration and at 478 nm for ATP titration in the presence of glycine. The kinetic parameters were calculated using the Michaelis –Menten equation:3 v0=Vmax⋅[S]/Km+[S] where v0 is the initial enzymatic rate, Vmax is the rate at substrate saturation, Km is the Michaelis constant and [S] is the substrate concentration.

hSR [3] = biological target: T1, hSR; parameters: method as in PMID 23992455; conditions: cited from earlier work; for Kd: hSR
StTdcB = system: StTdcB; parameters: method as in PMID 17046821; conditions: 5 mM AMP; cited from earlier work
Q89A-hSR [4] = biological target: T3, Q89A-hSR (Homo sapiens, UniProt Q9GZT4, Q89A); assay: L-Ser dehydration (LDH-coupled assay); format: biochemical; conditions: L-Ser dehydration by Q89A-hSR, 2 mM ATP vs absence of nucleotide
T3 construct: hexa-His; made in house; host or cells: E. coli BL21 CodonPlus (DE3)-RIL with GroEL/GroES
T3 sequence (Q9GZT4 1-340 Q89A): T1 sequence (Q9GZT4 1-340) with Q89A
Protocol: as §1, §2

Q89M-hSR [5] = biological target: T2, Q89M-hSR; assay: L-Ser dehydration (LDH-coupled assay); format: biochemical; conditions: L-Ser dehydration by Q89M-hSR, 2 mM ATP vs absence of nucleotide
Protocol: as §1, §2

Q89A-hSR [6] = biological target: T3, Q89A-hSR; assay: Activation of L-Ser dehydratase activity by ATP; format: biochemical
Protocol: (§4) Nicotinamide adenine dinucleotide (NADH) consumption was followed at 340 nm using a Varian Cary4000 spectrophotometer. The assay solution in buffer A contained 5 mM DTT, 30 U/ml LDH and 300 μM NADH. The concentration of magnesium used in the assay was always higher than or equal to the concentration of ATP. If not otherwise stated, it was set to 2 mM. […] The concentration used in the assay for D-Ser dehydration was 3.1 and 6.0 μM in the presence and absence of ATP, respectively.
as §3

Q89M-hSR [7] = biological target: T2, Q89M-hSR; assay: Activation of L-Ser dehydratase activity by ATP; format: biochemical
Protocol: as §4, §3

Q89A-hSR [8] = biological target: T3, Q89A-hSR; assay: D-Ser dehydration (LDH-coupled assay); format: biochemical; conditions: D-Ser dehydration by Q89A-hSR, ATP vs absence of nucleotide
Protocol: as §1, §2

Q89M-hSR [9] = biological target: T2, Q89M-hSR; assay: D-Ser dehydration (LDH-coupled assay); format: biochemical; conditions: D-Ser dehydration by Q89M-hSR, 2 mM ATP vs absence of nucleotide
Protocol: as §1, §2

hSR [10] = biological target: T1, hSR; parameters: method as in PMID 23992455; conditions: wt hSR, cited from earlier work
Q89A-hSR [11] = biological target: T3, Q89A-hSR; assay: L-Ser racemisation (DAAO-coupled discontinuous assay); format: biochemical; conditions: L-Ser racemisation by Q89A-hSR, 2 mM ATP vs absence of nucleotide
Protocol: (§5) The formation of D-serine as a function of L-serine concentration was determined using a discontinuous assay, based on oxidation of D-serine by the enzyme DAAO (Sigma Aldrich, A5222)[18],[37],[54]. This reaction produces hydrogen peroxide, that is used by the horseradish peroxidase to oxidize o-dianisidine dihydrochloride to form a chromophoric product. After the addition of sulphuric acid to increase the solubility, the concentration of this product can be measured at 550 nm. L-serine at various final concentrations was added to buffer A containing 1.5 µM hSR, in the absence and presence of 2 mM ATP. The reaction mixture was incubated at 37 °C and aliquots were periodically removed to determine D-serine concentration. L-serine was purified from any D-serine contaminations through 48 hours of incubation with 400 U/ml of DAAO and 100 U/ml of catalase, which were subsequently thermally inactivated. Absolute D-serine concentrations were determined using calibrations curves obtained by reacting known D-serine concentrations with DAAO. Absorbance signal was acquired by a Halo LED 96 plate reader (Dynamica Scientific, UK).
as §2, with “The kinetic parameters were calculated using the Michaelis –Menten equation:3 v0=Vmax⋅[S]/Km+[S] where v0 is the initial enzymatic rate, Vmax is the rate at substrate saturation, Km is the Michaelis constant and [S] is the substrate concentration.” left out

hSR [12] = biological target: T1, hSR; assay: as above; format: biochemical; conditions: L-Ser racemisation by hSR, 2 mM ATP vs absence of nucleotide
Protocol: as §5
as §2, with “The kinetic parameters were calculated using the Michaelis –Menten equation:3 v0=Vmax⋅[S]/Km+[S] where v0 is the initial enzymatic rate, Vmax is the rate at substrate saturation, Km is the Michaelis constant and [S] is the substrate concentration.” left out

Q89M-hSR [13] = biological target: T2, Q89M-hSR; assay: as above; format: biochemical; conditions: L-Ser racemisation by Q89M-hSR, 2 mM ATP vs absence of nucleotide
Protocol: as §5
as §2, with “The kinetic parameters were calculated using the Michaelis –Menten equation:3 v0=Vmax⋅[S]/Km+[S] where v0 is the initial enzymatic rate, Vmax is the rate at substrate saturation, Km is the Michaelis constant and [S] is the substrate concentration.” left out

hSR [14] = biological target: T1, hSR; assay: L-Ser dehydration (LDH-coupled assay); format: biochemical; conditions: hSR saturated with ATP
Protocol: as §1, §2

[15] = 2 mM ATP, preliminary, data not shown

Structure (SMILES): N[C@H](CO)C(=O)O [D-Ser, D-serine]
kcat (hSR [1]; −ATP): 0.0283 ± 0.0017 s⁻¹

Structure (SMILES): Nc1ncnc2c1ncn2[C@@H]1O[C@H](COP(=O)(O)O)[C@@H](O)[C@H]1O [AMP]
fold decrease in Km (StTdcB): 7.7 fold
fold increase in Vmax (StTdcB): 3 fold

Structure (SMILES): Nc1ncnc2c1ncn2[C@@H]1O[C@H](COP(=O)(O)OP(=O)(O)OP(=O)(O)O)[C@@H](O)[C@H]1O [ATP]
Increase (fold increase of catalytic efficiency kcat/Km in the presence of ATP) (Q89A-hSR [4]): 3.3 fold
Increase (fold increase of catalytic efficiency kcat/Km in the presence of ATP) (Q89M-hSR [5]): 3.9 fold
difference between KD and EC50 of ATP (Q89M-hSR [2]; Q89M-hSR, KD without substrate vs EC50 with 300 mM L-Ser): 6 fold
cooperativity of ATP binding (fluorimetric titration) (Q89M-hSR [2]; Q89M-hSR, absence of substrate): no cooperativity
fold increase in fluorescence emission intensity upon ATP binding (Q89M-hSR [2]; Q89M-hSR, excitation at 412 nm, absence of substrate): 1.65 fold
Kd (Q89M-hSR [2]; Q89M-hSR, ligand 2 Glycine (1 mM)): 48 ± 5 µM
Kd (Q89M-hSR [2]; Q89M-hSR, no ligand 2 (absence of substrate/glycine)): 154 ± 13 µM
fold increase of specific dehydratase activity (Q89A-hSR [6]; [15]): about 4 fold
effect on activity of further addition of ATP (Q89A-hSR [6]; ATP up to 10 mM): not increased
cooperativity of ATP binding (activity assay) (Q89A-hSR [6]; saturating 300 mM L-Ser): non-cooperative
fold increase of specific dehydratase activity (Q89M-hSR [7]; [15]): about 4 fold
effect on activity of further addition of ATP (Q89M-hSR [7]; ATP up to 10 mM): not increased
cooperativity of ATP binding (activity assay) (Q89M-hSR [7]; saturating 300 mM L-Ser): non-cooperative
EC50 (Q89M-hSR [7]; saturating 300 mM L-Ser, read-out: half-maximal activation (EC50) by ATP, L-Ser dehydratase activity): 21 ± 2 µM
Kd (hSR [3]; ligand 2 Glycine): 4.9 ± 0.6 µM
Hill coefficient of nucleotide binding (hSR [3]; human enzyme): about 2
Hill coefficient n, fluorimetric titration with ATP (hSR [3]; wt hSR, sigmoidal fit): 1.8 ± 0.1
EC50 (hSR [3]; wt hSR, sigmoidal fit, read-out: EC50 of ATP, fluorimetric titration): 257 ± 10 µM
Increase (fold increase of catalytic efficiency kcat/Km in the presence of ATP) (Q89A-hSR [8]): 2.3 fold
Increase (fold increase of catalytic efficiency kcat/Km in the presence of ATP) (hSR [1]; 2 mM ATP vs absence of nucleotide): 4.0 fold
Increase (fold increase of catalytic efficiency kcat/Km in the presence of ATP) (Q89M-hSR [9]): 2.8 fold
fold increase of specific dehydratase activity (hSR [10]; 2 mM ATP): 7 fold
Hill coefficient n of ATP dependence of L-Ser dehydratase activity (hSR [10]; sigmoidal fit): 1.7 ± 0.2 and 1.7
EC50 (hSR [10]; sigmoidal fit, read-out: half maximal effective concentration of ATP (EC50), L-Ser dehydratase activity): 220 ± 10 µM
Increase (fold increase of catalytic efficiency kcat/Km in the presence of ATP) (Q89A-hSR [11]): 1.6 fold
Increase (fold increase of catalytic efficiency kcat/Km in the presence of ATP) (hSR [12]): 2 fold and 1.9 fold
Increase (fold increase of catalytic efficiency kcat/Km in the presence of ATP) (Q89M-hSR [13]): 1.8 fold

More lines, main results first:

fold higher affinity for Q89M-hSR (vs wt hSR) (Q89M-hSR [2]; Q89M-hSR vs hSR): more than 60 fold
Kd (Q89M-hSR [2]; Q89M-hSR, ligand 2 ATP (2 mM)): 28 ± 3 µM
Kd (Q89M-hSR [2]; Q89M-hSR, no ligand 2 (absence of ATP)): 110 ± 2 µM
Structure (SMILES): NCC(=O)O [Glycine]
Kd (hSR [3]; ligand 2 ATP): 470 ± 30 µM
Kd (hSR [3]; no ligand 2): 7000 ± 300 µM

dehydratase activity efficiency relative to racemisation (hSR [14]): 15 fold
Structure (SMILES): N[C@@H](CO)C(=O)O [L-Ser, L-serine]
